# Test results as given in PubChem BioAssay (NCI).
# Several values for one entry are separate records, joined by “and”; a condition that tells them apart may be missing. Identical values can stand only once.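 Method: 48-hour compound exposure of cells in 96-well plates, five concentrations, linear interpolation of endpoints. GI50 is the concentration that inhibits growth by half. TGI marks complete inhibition of growth.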
# Assays:
# Experiment in all cases: NCI anticancer screen, dose series, 48 h
# [1] = test system: SR leukemia
# [2] = test system: UACC-62 melanoma
# [3] = test system: MCF7 breast
# [4] = test system: U251 CNS
# [5] = test system: SF-295 CNS
# [6] = test system: HOP-92 NSCLC
# [7] = test system: IGROV1 ovarian
# [8] = test system: OVCAR-4 ovarian
# [9] = test system: HOP-62 NSCLC
# [10] = test system: KM12 colon
# [11] = test system: 786-0 renal
# [12] = test system: DU-145 prostate
# [13] = test system: HL-60(TB) leukemia
# [14] = test system: MDA-MB-231 breast
# [15] = test system: A498 renal
# [16] = test system: SK-MEL-5 melanoma
# [17] = test system: NCI-H460 lung
# [18] = test system: MOLT-4 leukemia
# [19] = test system: SF-268 CNS
# [20] = test system: UACC-257 melanoma
# [21] = test system: UO-31 renal
# [22] = test system: CCRF-CEM leukemia
# [23] = test system: EKVX NSCLC
# [24] = test system: M14 melanoma
# [25] = test system: NCI-H226 lung
# [26] = test system: LOX IMVI melanoma
# [27] = test system: COLO 205 colon
# [28] = test system: K-562 leukemia
# [29] = test system: CAKI-1 renal
# [30] = test system: A549 NSCLC
# [31] = test system: PC-3 prostate
# [32] = test system: SNB-75 CNS
# [33] = test system: OVCAR-5 ovarian
# [34] = test system: SK-MEL-2 melanoma
# [35] = test system: HCT-15 colon
# [36] = test system: RXF 393 renal
# [37] = test system: SK-OV-3 ovarian
# [38] = test system: SK-MEL-28 melanoma
# [39] = test system: NCI-H522 lung
# [40] = test system: OVCAR-3 ovarian
# [41] = test system: SF-539 CNS
# [42] = test system: MDA-MB-435
# [43] = test system: SNB-19 CNS
# [44] = test system: BT-549 breast
# [45] = test system: ACHN renal
# [46] = test system: OVCAR-8 ovarian
# [47] = test system: RPMI-8226 leukemia
# [48] = test system: SW-620 colon
# [49] = test system: T-47D breast
# [50] = test system: NCI/ADR-RES ovarian
# [51] = test system: NCI-H23 lung
# [52] = test system: TK-10 renal
# [53] = test system: HCC-2998 colon
# [54] = test system: SN12C renal
# [55] = test system: MALME-3M melanoma
# [56] = test system: HS 578T breast
# [57] = test system: HT29 colon
# [58] = test system: HCT-116 colon
smiles,measurement,setting,value
Cc1nc(Nc2n[nH]c3c2CN(C(=O)N[C@H](CN(C)C)c2ccccc2)C3(C)C)c2sccc2n1,GI50,[1],4.32 nM and < 10 nM
same,GI50,[2],4.87 nM and < 10 nM
same,TGI,[2],154 nM
same,GI50,[3],5.23 nM and < 10 nM
same,TGI,[3],> 5.5 µM and 6.46 µM
same,GI50,[4],24.2 nM and 32.5 nM
same,TGI,[4],> 7.15 µM and 8.11 µM
same,GI50,[5],78 nM and 66 nM
same,TGI,[5],> 10 µM and 8.62 µM
same,TGI,[6],2700 nM and 470 nM
same,GI50,[7],12.7 nM and 24.7 nM
same,TGI,[7],> 3.53 µM and 16.7 µM
same,GI50,[8],615 nM and 1390 nM
same,TGI,[8],> 6.95 µM and 8.37 µM
same,GI50,[9],72.4 nM and 129 nM
same,TGI,[9],5.12 µM and 7.06 µM
same,GI50,[10],49.3 nM and 73.9 nM
same,TGI,[10],> 4.68 µM and 4.45 µM
same,GI50,[11],281 nM and 820 nM
same,TGI,[11],4.75 µM and 4.45 µM
same,GI50,[12],156 nM and 317 nM
same,TGI,[12],> 10 µM and 15.9 µM
same,GI50,[13],18.9 nM and 56.4 nM
same,TGI,[13],2030 nM and 3430 nM
same,GI50,[14],85.6 nM and 34.1 nM
same,TGI,[14],1980 nM and 1950 nM
same,TGI,[15],1850 nM and 3250 nM
same,GI50,[16],142 nM and 162 nM
same,TGI,[16],1840 nM and 2260 nM
same,GI50,[17],13.2 nM and 22.3 nM
same,TGI,[17],> 4.07 µM and 10.7 µM
same,GI50,[18],92 nM and 276 nM
same,TGI,[18],9.74 µM and 7.04 µM
same,GI50,[19],177 nM and 427 nM
same,TGI,[19],> 4.61 µM and 5.23 µM
same,GI50,[20],< 10.6 nM
same,TGI,[20],1270 nM and 4340 nM
same,GI50,[21],229 nM and 1280 nM
same,TGI,[21],> 4.67 µM and 42.3 µM
same,GI50,[22],286 nM and 400 nM
same,TGI,[22],> 25.1 µM
same,GI50,[23],90.7 nM and 140 nM
same,TGI,[23],> 8.27 µM and 23.6 µM
same,GI50,[24],58.6 nM and 103 nM
same,TGI,[24],> 3.22 µM and 8.37 µM
same,GI50,[25],341 nM and 302 nM
same,TGI,[25],> 5.18 µM and 5.01 µM
same,GI50,[26],8.7 nM and < 11.9 nM
same,TGI,[26],1380 nM and 2160 nM
same,GI50,[27],8.66 nM and < 10.9 nM
same,TGI,[27],241 nM and 279 nM
same,GI50,[28],24.2 nM and 199 nM
same,TGI,[28],> 100 µM
same,TGI,[29],> 5.08 µM and 51.9 µM
same,GI50,[30],91.1 nM and 291 nM
same,TGI,[30],> 50.9 µM
same,GI50,[31],242 nM and 41 nM
same,TGI,[31],> 6.33 µM and 9.76 µM
same,GI50,[32],206 nM and 284 nM
same,TGI,[32],2230 nM and 2820 nM
same,GI50,[33],68.6 nM and 322 nM
same,TGI,[33],> 8.88 µM and 25.2 µM
same,GI50,[34],21.1 nM and 14.9 nM
same,TGI,[34],1010 nM and 2800 nM
same,GI50,[35],687 nM and 1260 nM
same,TGI,[35],> 10 µM and 68.5 µM
same,GI50,[36],143 nM and 751 nM
same,TGI,[36],1890 nM and 2530 nM
same,GI50,[37],317 nM and 205 nM
same,TGI,[37],> 5.94 µM and 14.7 µM
same,GI50,[38],13 nM and < 10 nM
same,TGI,[38],1120 nM and 4310 nM
same,GI50,[39],< 16.8 nM and 39.8 nM
same,TGI,[39],2280 nM and 2740 nM
same,GI50,[40],25.5 nM and 58.4 nM
same,TGI,[40],1.57 µM and 7.36 µM
same,GI50,[41],382 nM and 149 nM
same,TGI,[41],3.68 µM and 2.98 µM
same,GI50,[42],27.2 nM and 27.5 nM
same,TGI,[42],> 3.52 µM and 3.35 µM
same,GI50,[43],57.5 nM and 54.6 nM
same,TGI,[43],> 6.54 µM and 3.75 µM
same,GI50,[44],393 nM and 189 nM
same,TGI,[44],3.63 µM and 3.12 µM
same,GI50,[45],432 nM and 337 nM
same,TGI,[45],> 75 µM
same,GI50,[46],83.9 nM and 306 nM
same,TGI,[46],> 10 µM and 15.6 µM
same,GI50,[47],148 nM and 107 nM
same,TGI,[47],> 4.74 µM and 5.69 µM
same,GI50,[48],24.4 nM and 34.6 nM
same,TGI,[48],> 38.7 µM
same,GI50,[49],94.2 nM and 562 nM
same,TGI,[49],5.47 µM and 8.67 µM
same,GI50,[50],> 3.65 µM and 17.5 µM
same,TGI,[50],> 100 µM
same,GI50,[51],13.6 nM and 20.7 nM
same,TGI,[51],2.8 µM and 4.42 µM
same,GI50,[52],98.2 nM and 491 nM
same,TGI,[52],3.92 µM and 6.08 µM
same,GI50,[53],13.5 nM and 45.3 nM
same,TGI,[53],2.22 µM and 3.98 µM
same,GI50,[54],19.3 nM and < 17.6 nM
same,TGI,[54],> 4.66 µM and 3.84 µM
same,GI50,[55],47.3 nM and < 10 nM
same,TGI,[55],497 nM and 2440 nM
same,GI50,[56],144 nM and 469 nM
same,TGI,[56],> 5.44 µM and 14.7 µM
same,GI50,[57],23.8 nM and 31.3 nM
same,TGI,[57],2.75 µM and 5.59 µM
same,GI50,[58],5.77 nM and < 10 nM
same,TGI,[58],> 5.74 µM and 10.3 µM
